The values that follow come from PubChem BioAssay AID328 (DTP/NCI, 2004).

The subject of this experiment is BDF1 mice, P388 leukemia ip, median survival T/C. Kind of experiment: NCI In Vivo Anticancer Drug Screen. Data for tumor model P388 Leukemia (intraperitoneal) in B6D2F1 (BDF1) mice. The note with it: endpoint: median survival time, higher = longer survival. The procedure, abridged:
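Each value expresses how treatment altered survival: treated-mouse outcome over vehicle-mouse outcome, both groups bearing the transplanted tumour.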

Where [1] appears, read: dose: 12.5 mg/kg/injection, schedule: Q01DX009 (ip), vehicle: saline.
Where [2] appears, read: dose: 25.0 mg/kg/injection, schedule: Q01DX009 (ip), vehicle: saline.
Setting [3] is: dose: 50.0 mg/kg/injection, schedule: Q04DX003 (ip), vehicle: saline.
Setting [4] is: dose: 100.0 mg/kg/injection, schedule: Q01DX009 (ip), vehicle: Klucel (hydroxypropylcellulose) (HPC).
[5] abbreviates: dose: 100.0 mg/kg/injection, schedule: Q04DX003 (ip), vehicle: Klucel (hydroxypropylcellulose) (HPC).
Setting [6] is: dose: 200.0 mg/kg/injection, schedule: Q01DX009 (ip), vehicle: Klucel (hydroxypropylcellulose) (HPC).
The mark [7] stands for this setting: dose: 200.0 mg/kg/injection, schedule: Q04DX003 (ip), vehicle: Klucel (hydroxypropylcellulose) (HPC).
Where [8] appears, read: dose: 400.0 mg/kg/injection, schedule: Q01DX009 (ip), vehicle: Klucel (hydroxypropylcellulose) (HPC).
Where [9] appears, read: dose: 400.0 mg/kg/injection, schedule: Q04DX003 (ip), vehicle: Klucel (hydroxypropylcellulose) (HPC).
Setting [10] is: dose: 50.0 mg/kg/injection, schedule: Q04DX003 (ip), vehicle: water.
Where [11] appears, read: dose: 100.0 mg/kg/injection, schedule: Q04DX003 (ip), vehicle: water.
Setting [12] is: dose: 200.0 mg/kg/injection, schedule: Q04DX003 (ip), vehicle: water.
Where [13] appears, read: dose: 400.0 mg/kg/injection, schedule: Q04DX003 (ip), vehicle: water.
Setting [14] is: dose: 100.0 mg/kg/injection, schedule: Q04DX003 (ip), vehicle: saline sonified.
The mark [15] stands for this setting: dose: 200.0 mg/kg/injection, schedule: Q04DX003 (ip), vehicle: saline sonified.
The mark [16] stands for this setting: dose: 400.0 mg/kg/injection, schedule: Q04DX003 (ip), vehicle: saline sonified.
Setting [17] is: dose: 25.0 mg/kg/injection, schedule: Q01DX001 (ip), vehicle: saline with Tween-80.
The mark [18] stands for this setting: dose: 50.0 mg/kg/injection, schedule: Q01DX009 (ip), vehicle: saline with Tween-80.
[19] abbreviates: dose: 100.0 mg/kg/injection, schedule: Q01DX009 (ip), vehicle: saline with Tween-80.
Setting [20] is: dose: 200.0 mg/kg/injection, schedule: Q01DX009 (ip), vehicle: saline with Tween-80.

“And” between values parts separate entries of the source, which are not always exact repeats. Equal entries are not always repeated. Inconclusive results and toxic doses are left out. Residues, ends and D or L forms follow the SMILES beside them. *: point of attachment. Cbz = O=C(OCc1ccccc1)*; OtBu = CC(C)(C)O*

For the compound `CN(C)Cc1ccc([N+](=O)[O-])cc1`, the T/C under setting [1] is 116 % of control; the T/C under setting [2] is 119 % of control; the T/C (dose: 50.0 mg/kg/injection, schedule: Q01DX009 (ip), vehicle: saline) was 104 % of control; the T/C under setting [3] is 107 % of control; the T/C (dose: 100.0 mg/kg/injection, schedule: Q04DX003 (ip), vehicle: saline) was 90 % of control; the T/C (dose: 200.0 mg/kg/injection, schedule: Q04DX003 (ip), vehicle: saline) was 107 % of control.
Turning to `COc1ccc(NC(=O)c2ccccc2Cl)cc1`, the T/C by setting is: under setting [4], 100 % of control; under setting [5], 104 % of control; under setting [6], 95 % of control; under setting [7], 91 % of control; under setting [8], 104 % of control; under setting [9], 112 % of control.
Consider `Nc1ccn(CC(=O)N2CCOCC2)c(=O)n1`, for which the T/C reads like this: (dose: 25.0 mg/kg/injection, schedule: Q04DX003 (ip), vehicle: water) 106 % of control; under setting [10], 103 % of control; under setting [11], 89 % of control; under setting [12], 103 % of control; under setting [13], 94 % of control.
Consider `O=C(O)c1ccccc1CBr`, for which the T/C runs as follows: under setting [14], 104 % of control; under setting [15], 104 % of control; under setting [16], 100 % of control.
For the compound `c1nc(SC2=NCCN2)c2[nH]cnc2n1`, the T/C (dose: 4.12 mg/kg/injection, schedule: Q01DX009 (ip), vehicle: saline) is 118 % of control; the T/C (dose: 6.25 mg/kg/injection, schedule: Q01DX009 (ip), vehicle: saline) was 150 % of control; the T/C (dose: 9.37 mg/kg/injection, schedule: Q01DX009 (ip), vehicle: saline) is 122 % of control; the T/C under setting [1] is 119 % of control; the T/C (dose: 12.5 mg/kg/injection, schedule: Q04DX003 (ip), vehicle: saline) is 115 % of control; the T/C (dose: 21.0 mg/kg/injection, schedule: Q01DX009 (ip), vehicle: saline) was 100 % of control. Besides, the T/C by setting is: under setting [2], 123 % of control; (dose: 25.0 mg/kg/injection, schedule: Q04DX003 (ip), vehicle: saline) 115 % of control; under setting [3], 123 % of control.
Regarding `C=C1C[C@H]2[C@@H]3C=C(C)C4=CC(=O)CC[C@]4(C)[C@H]3CC[C@]2(C)[C@@]1(OC(C)=O)C(C)=O`, the T/C reads like this: (dose: 62.5 mg/kg/injection, schedule: Q01DX010 (sc), vehicle: steriod suspending solution) 105 % of control; (dose: 125.0 mg/kg/injection, schedule: Q01DX010 (sc), vehicle: steriod suspending solution) 110 % of control; (dose: 250.0 mg/kg/injection, schedule: Q01DX010 (sc), vehicle: steriod suspending solution) 100 % of control; (dose: 500.0 mg/kg/injection, schedule: Q01DX010 (sc), vehicle: steriod suspending solution) 110 % of control.
As to `C[n+]1c(/C=C/c2ccc(N(CCC(=O)O)CCC(=O)O)cc2)ccc2cc(Cl)ccc21`, the T/C by setting is: (dose: 12.5 mg/kg/injection, schedule: Q01DX001 (ip), vehicle: saline with Tween-80) 109 % of control; under setting [17], 88 % of control.
With `O=c1ccccn1CC1(c2ccccc2)OCCO1`, the T/C is, setting by setting: under setting [4], 95 % of control; under setting [6], 91 % of control; under setting [8], 95 % of control.
Consider `O=C1Nc2c(Cl)cc(Cl)cc2C12Nc1ccccc1S2` (configuration not stated), for which the T/C was 112 % of control under setting [18], 96 % of control under setting [19] and 107 % of control under setting [20].
For the compound `Nc1ccc(OCCCCNC(=O)c2ccc(S(=O)(=O)F)cc2)c(Cl)c1`, the T/C runs as follows: (dose: 0.78 mg/kg/injection, schedule: Q01DX009 (ip), vehicle: saline with Tween-80) 94 % of control; (dose: 1.56 mg/kg/injection, schedule: Q01DX009 (ip), vehicle: saline with Tween-80) 111 % of control; (dose: 3.12 mg/kg/injection, schedule: Q01DX009 (ip), vehicle: saline with Tween-80) 102 % of control; (dose: 6.25 mg/kg/injection, schedule: Q01DX009 (ip), vehicle: saline with Tween-80) 100 % of control; (dose: 12.5 mg/kg/injection, schedule: Q01DX009 (ip), vehicle: saline with Tween-80) 102 % of control; (dose: 25.0 mg/kg/injection, schedule: Q01DX009 (ip), vehicle: saline with Tween-80) 86 % of control and 100 % of control and 115 % of control. Moreover, the T/C by setting is: under setting [18], 110 % of control; under setting [19], 117 % of control; (dose: 100.0 mg/kg/injection, schedule: Q04DX003 (ip), vehicle: saline with Tween-80) 103 % of control; under setting [20], 110 % of control; (dose: 200.0 mg/kg/injection, schedule: Q04DX003 (ip), vehicle: saline with Tween-80) 99 % of control.
As to `COc1ccc(-c2noc(=O)c3ccccc23)cc1`, the T/C was 102 % of control under setting [18], 100 % of control under setting [19] and 114 % of control under setting [20].
For the compound `O=c1cc(CO)[nH]cc1O`, the T/C (dose: 177.0 mg/kg/injection, schedule: Q01DX009 (ip), vehicle: Klucel (hydroxypropylcellulose) (HPC)) was 119 % of control.
With `CN(C)c1ccc(Cc2ccc(N(C)C)cc2[N+](=O)[O-])cc1`, the T/C is, setting by setting: under setting [5], 100 % of control; under setting [7], 95 % of control; under setting [9], 104 % of control.
With `CC[C@@H]1C[C@H]2CC3c4[nH]c5ccc(O)cc5c4CCN(C2)C31`, the T/C runs as follows: under setting [17], 106 % of control; (dose: 50.0 mg/kg/injection, schedule: Q01DX001 (ip), vehicle: saline with Tween-80) 104 % of control; (dose: 100.0 mg/kg/injection, schedule: Q01DX001 (ip), vehicle: saline with Tween-80) 108 % of control.
Regarding `CCC(C)C(NC(=O)OCc1ccccc1)C(=O)NC(C(=O)NC(CCC(=O)OC(C)(C)C)C(=O)OC)C(C)C` (stereo not drawn) (Cbz-Ile-Val-Glu(OtBu)-OMe; configuration not given here), the T/C under setting [14] is 90 % of control, the T/C under setting [15] is 90 % of control and the T/C under setting [16] is 95 % of control.
`Cc1ccc(S(=O)(=O)OCCN(CCOS(=O)(=O)c2ccc(C)cc2)c2cc(OCc3ccccc3)cc(OCc3ccccc3)c2)cc1`: the T/C reads like this: (dose: 1.56 mg/kg/injection, schedule: Q01DX009 (ip), vehicle: water) 90 % of control and 99 % of control; (dose: 3.12 mg/kg/injection, schedule: Q01DX009 (ip), vehicle: water) 93 % of control and 100 % of control; (dose: 6.25 mg/kg/injection, schedule: Q01DX009 (ip), vehicle: water) 98 % of control and 110 % of control; (dose: 12.5 mg/kg/injection, schedule: Q01DX009 (ip), vehicle: water) 91 % of control and 100 % of control; (dose: 25.0 mg/kg/injection, schedule: Q01DX009 (ip), vehicle: water) 93 % of control and 100 % of control; under setting [10], 91 % of control. In addition, the T/C by setting is: (dose: 100.0 mg/kg/injection, schedule: Q01DX009 (ip), vehicle: water) 88 % of control; under setting [11], 89 % of control; under setting [12], 97 % of control; under setting [13], 97 % of control.
`O=CC1CO1` (configuration not stated): the T/C runs as follows: (dose: 33.0 mg/kg/injection, schedule: Q01DX009 (ip), vehicle: saline sonified) 150 % of control; (dose: 33.0 mg/kg/injection, schedule: Q01DX009 (ip), vehicle: saline) 116 % of control.
Take `C=C(C)C(=O)OC1C(C(C)CCCO)=C(CO)CC2OC(=O)C(=C)C21` (configuration not stated): the T/C was 104 % of control (dose: 2.0 mg/kg/injection, schedule: Q01DX009 (ip), vehicle: saline + alcohol); 109 % of control (dose: 4.0 mg/kg/injection, schedule: Q01DX009 (ip), vehicle: saline + alcohol); 114 % of control (dose: 8.0 mg/kg/injection, schedule: Q01DX009 (ip), vehicle: saline + alcohol); 109 % of control (dose: 16.0 mg/kg/injection, schedule: Q01DX009 (ip), vehicle: saline + alcohol); 152 % of control (dose: 32.0 mg/kg/injection, schedule: Q01DX009 (ip), vehicle: saline + alcohol).
